Experimental data: patent US20130266557A1, “METHODS FOR TREATMENT OF A SARCOMA USING AN EPIMETABOLIC SHIFTER (COENZYME Q10)” (priority 2009, published 2013)

Tests used:
Assay in all cases: Induction of early apoptosis by CoQ10
Assay type in all cases: cell-based
Melanoma (Skmel 28) = system: Melanoma (Skmel 28)
Experimental: (§1) The effects of Coenzyme Q10 treatment on a variety of oncogenic and normal cell lines were examined and compared. The sensitivity of cells to Coenzyme Q10 was assessed by monitoring induction of apoptosis. CoQ10 treatment of cells was carried out as described in detail below in the Materials and Methods. Induction of apoptosis was assessed in the treated cells by monitoring indicators of early apoptosis (e.g., Bcl-2 expression, caspase activation and by using annexin V assays) as described below. From these studies, the minimal CoQ10 dosage, e.g., concentration of CoQ10 and time of treatment, required to induce apoptosis in the panel of cell lines was determined.
(§2) Cells were cultured in T-75 flasks with relevant medium supplemented with 10% Fetal Bovine Serum (FBS), 1% PSA (penicillin, streptomycin, amphotericin B) (Invitrogen and Cellgro) in a 37° C. incubator with 5% CO2 levels until 70-80% confluence was reached. To harvest cells for treatment, flasks were primed with 1 mL Trypsin, aspirated, trypsinized with an additional 3 mL, and incubated at 37° C. for 3-5 minutes. Cells were then neutralized with an equal volume of media and the subsequent solution was centrifuged at […] for 8 minutes. The supernatant was aspirated and the cells were resuspended with 8.5 ml of media. A mixture of 500 ul of the resuspension and 9.5 ml of […] was read twice by a coulter counter and the appropriate number of cells to be seeded into each dish was determined. Control and concentration ranging from 0-200 μM groups were examined in triplicate. From a 500 μM CoQ-10 stock solution, serial dilutions were performed to achieve desired experimental concentration in appropriate dishes. Dishes were incubated in a 37° C. incubator with 5% CO2 levels for 0-72 hours depending on cell type and experimental protocol.
(§3) The volume of sample to load per well was determined using the raw mean concentration of protein obtained from the BCA protein assay. Approximately 30-60 μg of protein were loaded for each treatment time point. Proteins were run in triplicate on 12% Tris-HCl ready gels (Bio-Rad) or hand cast gels in 1× running buffer at 85 and 100 volts. Proteins were then transferred onto nitrocellulose paper for an hour at 100 volts, and blocked for another hour in a 5% milk solution. Membranes were placed in primary antibody (1 uL Ab:1000 uL TBST) (Cell Signaling) overnight at […] The following day, membranes were washed three times for ten minutes each with Tris-Buffered Saline Tween-20 (TBST), and secondary antibody (anti-rabbit; 1 uL Ab: 1000 uL TBST) was applied for an hour at […] Membranes were washed again three times for ten minutes with TBST and chemoluminescence using Pico or Femto substrate was completed (Pierce). Membranes were then developed at time intervals that produced the best visual results. After developing, membranes were kept in TBST at […] until Actin levels could be measured.
(§4) Cells were washed twice in PBS10× and resuspended in Binding Buffer (0.1 M HEPES, pH 7.4; 1.4 M NaCl; 25 mM CaCl2). Samples of 100 μl were added to a culture tube with 5 μl of annexin-PE dye or […]. The cells were mixed and incubated without light at room temperature for 15 minutes. After which, 400 μl of 1×Binding Buffer was added to each sample and they were subjected to analysis by flow cytometry.

[1] = system: Aortic smooth muscle (HASMC); conditions: Heart: Aortic smooth muscle (HASMC)
Experimental: as §1, §2, §3, §4

HepG2 = system: HepG2
Experimental: as §1, §2, §3, §4

Ewing's sarcoma (NCI) = system: Ewing's sarcoma (NCI)
Experimental: as §1, §2, §3, §4

PC3 = system: PC3
Experimental: as §1, §2, §3, §4

Melanoma (Skmel 2) = system: Melanoma (Skmel 2)
Experimental: as §1, §2, §3, §4

MDA MB 468 = system: MDA MB 468
Experimental: as §1, §2, §3, §4

Melanocytes (Hema, LP) = conditions: SKIN: Melanocytes (Hema, LP)
Experimental: as §1, §2, §3, §4

SkBr-3 = system: SkBr-3
Experimental: as §1, §2, §3, §4

Fibroblasts (nFib) = conditions: SKIN: Fibroblasts (nFib)
Experimental: as §1, §2, §3, §4

Osteosarcoma (143b) = system: Osteosarcoma (143b)
Experimental: as §1, §2, §3, §4

MCF-7 = system: MCF-7
Experimental: as §1, §2, §3, §4

[2] = system: SCC, Squamous cell carcinoma
Experimental: as §1, §2, §3, §4

PaCa2 = system: PaCa2
Experimental: as §1, §2, §3, §4

[3] = system: Keratinocytes (Heka, Hekn); conditions: SKIN: Keratinocytes (Heka, Hekn)
Experimental: as §1, §2, §3, §4

BT-20 = system: BT-20
Experimental: as §1, §2, §3, §4

Hep3B = system: Hep3B
Experimental: as §1, §2, §3, §4

ZR-75 = system: ZR-75
Experimental: as §1, §2, §3, §4

[4] = system: Mammary fiboblasts: 184A1 and 184B5; conditions: BREAST: Mammary fiboblasts 184A1 and 184B5
Experimental: as §1, §2, §3, §4

## Coenzyme Q10 [CoQ10]
Melanoma (Skmel 28); Melanoma (Skmel 28)
  Minimal CoQ10 Concentration required for induction of early apoptosis: 20 µM
  Treatment Time required for induction of early apoptosis: 24 h
Melanoma (Skmel 28); SKIN: Melanoma (Skmel 28)
  Indication of Early apoptosis (Bcl-2, annexin V, or caspase activation): Strong
[1]
  Indication of Early apoptosis (Bcl-2, annexin V, or caspase activation): None
HepG2; HepG2
  Minimal CoQ10 Concentration required for induction of early apoptosis: 50 µM
  Treatment Time required for induction of early apoptosis: 24 h
HepG2; LIVER: HepG2
  Indication of Early apoptosis (Bcl-2, annexin V, or caspase activation): Very Strong
Ewing's sarcoma (NCI)
  Minimal CoQ10 Concentration required for induction of early apoptosis: 5 µM
  Treatment Time required for induction of early apoptosis: 1 h
PC3; PC3
  Minimal CoQ10 Concentration required for induction of early apoptosis: 25 µM
  Treatment Time required for induction of early apoptosis: 24 h
PC3; PROSTATE: PC3
  Indication of Early apoptosis (Bcl-2, annexin V, or caspase activation): Very Strong
Melanoma (Skmel 2); Melanoma (Skmel 2)
  Minimal CoQ10 Concentration required for induction of early apoptosis: 25 µM
  Treatment Time required for induction of early apoptosis: 24 h
Melanoma (Skmel 2); SKIN: Melanoma (Skmel 2)
  Indication of Early apoptosis (Bcl-2, annexin V, or caspase activation): Very Strong
MDA MB 468; BREAST: MDA MB 468
  Indication of Early apoptosis (Bcl-2, annexin V, or caspase activation): Strong
MDA MB 468; MDA MB 468
  Minimal CoQ10 Concentration required for induction of early apoptosis: 100 µM
  Treatment Time required for induction of early apoptosis: 48 h
Melanocytes (Hema, LP)
  Indication of Early apoptosis (Bcl-2, annexin V, or caspase activation): None
SkBr-3; BREAST: SkBr-3
  Indication of Early apoptosis (Bcl-2, annexin V, or caspase activation): Very Strong
SkBr-3; SkBr-3
  Minimal CoQ10 Concentration required for induction of early apoptosis: 50 µM
  Treatment Time required for induction of early apoptosis: 24 h
Fibroblasts (nFib)
  Indication of Early apoptosis (Bcl-2, annexin V, or caspase activation): None
Osteosarcoma (143b); BONE: Osteosarcoma (143b)
  Indication of Early apoptosis (Bcl-2, annexin V, or caspase activation): Very Strong
Osteosarcoma (143b); Osteosarcoma (143b)
  Minimal CoQ10 Concentration required for induction of early apoptosis: 50 µM
  Treatment Time required for induction of early apoptosis: 48 h
MCF-7; BREAST: MCF-7
  Indication of Early apoptosis (Bcl-2, annexin V, or caspase activation): Strong
MCF-7; MCF-7
  Minimal CoQ10 Concentration required for induction of early apoptosis: 50 µM
  Treatment Time required for induction of early apoptosis: 48 h
[2]; SCC
  Minimal CoQ10 Concentration required for induction of early apoptosis: 25 µM
  Treatment Time required for induction of early apoptosis: 24 h
[2]; SKIN: SCC
  Indication of Early apoptosis (Bcl-2, annexin V, or caspase activation): Very Strong
PaCa2; PANCREAS: PaCa2
  Indication of Early apoptosis (Bcl-2, annexin V, or caspase activation): Very Strong
PaCa2; PaCa2
  Minimal CoQ10 Concentration required for induction of early apoptosis: 25 µM
  Treatment Time required for induction of early apoptosis: 24 h
[3]
  Indication of Early apoptosis (Bcl-2, annexin V, or caspase activation): None
BT-20; BREAST: BT-20
  Indication of Early apoptosis (Bcl-2, annexin V, or caspase activation): Strong
BT-20; BT-20
  Minimal CoQ10 Concentration required for induction of early apoptosis: 100 µM
  Treatment Time required for induction of early apoptosis: 48 h
Hep3B; Hep3B
  Minimal CoQ10 Concentration required for induction of early apoptosis: 50 µM
  Treatment Time required for induction of early apoptosis: 24 h
Hep3B; LIVER: Hep3B
  Indication of Early apoptosis (Bcl-2, annexin V, or caspase activation): Very Strong
ZR-75; BREAST: ZR-75
  Indication of Early apoptosis (Bcl-2, annexin V, or caspase activation): Slight
ZR-75; ZR-75
  Minimal CoQ10 Concentration required for induction of early apoptosis: 200 µM
  Treatment Time required for induction of early apoptosis: 72 h
[4]
  Indication of Early apoptosis (Bcl-2, annexin V, or caspase activation): None
